According to PubChem BioAssay AID2060483 (Molecular Pharmacology Branch, DTP, NCI, 2025):

System: K24384-001-R-PDC complex spheroids, viability
Assay: Anticancer human tumor K24384-001-R-PDC patient-derived pancreatic adenocarcinoma cell line growth inhibition [GQUAD]
Conditions: for IC50: curve of first compound; for viability, T/C: stronger effect = lower value
How it was run: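 Viability of tumor cells grown as complex spheroids with endothelial and stromal cells, exposed to drug combinations. Top concentration at or near clinical Cmax (else 10 microM), diluted in half-log increments.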

[1] = second compound 0.0316 µM, first compound 0.0316 µM
[2] = second compound 0.0316 µM, first compound 0.316 µM
[3] = second compound 0.1 µM, first compound 0.0316 µM
[4] = second compound 0.1 µM, first compound 0.316 µM
[5] = second compound 0.316 µM, first compound 0.0316 µM
[6] = second compound 0.316 µM, first compound 0.316 µM
[7] = second compound 1 µM, first compound 0.0316 µM
[8] = second compound 1 µM, first compound 0.316 µM
[9] = second compound 3.16 µM, first compound 0.0316 µM
[10] = second compound 3.16 µM, first compound 0.316 µM
[11] = second compound 10 µM, first compound 0.0316 µM
[12] = second compound 10 µM, first compound 0.316 µM
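Further: spheroids exposed to compounds for seven days.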

CC[C@@]1(O)C(=O)OCc2c1cc1n(c2=O)Cc2cc3c(CN(C)C)c(O)ccc3nc2-1 + Cc1[nH]c2ccc(F)cc2c1-c1nc2c3cccnc3c3ncccc3c2[nH]1
IC50 (second compound 0.0316 µM): > 316 nM
IC50 (second compound 0.1 µM): 292 nM
IC50 (second compound 0.316 µM): 233 nM
IC50 (second compound 1 µM): 239 nM
IC50 (second compound 3.16 µM): 139 nM
IC50 (second compound 10 µM): 146 nM
viability, T/C (second compound 0.0316 µM, first compound 0.000999 µM): 102%
viability, T/C (second compound 0.0316 µM, first compound 0.00316 µM): 110%
viability, T/C (second compound 0.0316 µM, first compound 0.00999 µM): 95.7%
viability, T/C [1]: 80.9%
viability, T/C (second compound 0.0316 µM, first compound 0.0999 µM): 61.3%
viability, T/C [2]: 51.2%
viability, T/C (second compound 0.1 µM, first compound 0.000999 µM): 83.5%
viability, T/C (second compound 0.1 µM, first compound 0.00316 µM): 113%
viability, T/C (second compound 0.1 µM, first compound 0.00999 µM): 82.4%
viability, T/C [3]: 87.7%
viability, T/C (second compound 0.1 µM, first compound 0.0999 µM): 65.8%
viability, T/C [4]: 49%
viability, T/C (second compound 0.316 µM, first compound 0.000999 µM): 85.4%
viability, T/C (second compound 0.316 µM, first compound 0.00316 µM): 92.2%
viability, T/C (second compound 0.316 µM, first compound 0.00999 µM): 83.1%
viability, T/C [5]: 82.9%
viability, T/C (second compound 0.316 µM, first compound 0.0999 µM): 68.3%
viability, T/C [6]: 43.4%
viability, T/C (second compound 1 µM, first compound 0.000999 µM): 95.7%
viability, T/C (second compound 1 µM, first compound 0.00316 µM): 92.8%
viability, T/C (second compound 1 µM, first compound 0.00999 µM): 98.8%
viability, T/C [7]: 76.8%
viability, T/C (second compound 1 µM, first compound 0.0999 µM): 59%
viability, T/C [8]: 46.7%
viability, T/C (second compound 3.16 µM, first compound 0.000999 µM): 73.8%
viability, T/C (second compound 3.16 µM, first compound 0.00316 µM): 74.7%
viability, T/C (second compound 3.16 µM, first compound 0.00999 µM): 79.1%
viability, T/C [9]: 81.2%
viability, T/C (second compound 3.16 µM, first compound 0.0999 µM): 53.6%
viability, T/C [10]: 41%
viability, T/C (second compound 10 µM, first compound 0.000999 µM): 78.1%
viability, T/C (second compound 10 µM, first compound 0.00316 µM): 55%
viability, T/C (second compound 10 µM, first compound 0.00999 µM): 66.4%
viability, T/C [11]: 67.4%
viability, T/C (second compound 10 µM, first compound 0.0999 µM): 58.8%
viability, T/C [12]: 31.3%

COc1ncnc(C2CC2)c1-c1ncc2cnn(Cc3ccc(-c4nc(C(F)(F)F)cn4C(C)C)cc3)c2n1 + Cc1[nH]c2ccc(F)cc2c1-c1nc2c3cccnc3c3ncccc3c2[nH]1
IC50 (second compound 0.0316 µM): > 10000 nM
IC50 (second compound 0.1 µM): > 10000 nM
IC50 (second compound 0.316 µM): > 10000 nM
IC50 (second compound 1 µM): > 10000 nM
IC50 (second compound 3.16 µM): > 10000 nM
IC50 (second compound 10 µM): > 10000 nM
viability, T/C [1]: 106%
viability, T/C (second compound 0.0316 µM, first compound 0.1 µM): 109%
viability, T/C [2]: 122%
viability, T/C (second compound 0.0316 µM, first compound 1 µM): 97.5%
viability, T/C (second compound 0.0316 µM, first compound 3.16 µM): 104%
viability, T/C (second compound 0.0316 µM, first compound 10 µM): 128%
viability, T/C [3]: 98.4%
viability, T/C (second compound 0.1 µM, first compound 0.1 µM): 98.7%
viability, T/C [4]: 103%
viability, T/C (second compound 0.1 µM, first compound 1 µM): 85.5%
viability, T/C (second compound 0.1 µM, first compound 3.16 µM): 122%
viability, T/C (second compound 0.1 µM, first compound 10 µM): 134%
viability, T/C [5]: 90.8%
viability, T/C (second compound 0.316 µM, first compound 0.1 µM): 107%
viability, T/C [6]: 107%
viability, T/C (second compound 0.316 µM, first compound 1 µM): 95.6%
viability, T/C (second compound 0.316 µM, first compound 3.16 µM): 96.7%
viability, T/C (second compound 0.316 µM, first compound 10 µM): 118%
viability, T/C [7]: 86.3%
viability, T/C (second compound 1 µM, first compound 0.1 µM): 96.8%
viability, T/C [8]: 95.8%
viability, T/C (second compound 1 µM, first compound 1 µM): 104%
viability, T/C (second compound 1 µM, first compound 3.16 µM): 95.2%
viability, T/C (second compound 1 µM, first compound 10 µM): 95.7%
viability, T/C [9]: 81.8%
viability, T/C (second compound 3.16 µM, first compound 0.1 µM): 89.3%
viability, T/C [10]: 73.2%
viability, T/C (second compound 3.16 µM, first compound 1 µM): 88.7%
viability, T/C (second compound 3.16 µM, first compound 3.16 µM): 95.1%
viability, T/C (second compound 3.16 µM, first compound 10 µM): 84.1%
viability, T/C [11]: 72.5%
viability, T/C (second compound 10 µM, first compound 0.1 µM): 102%
viability, T/C [12]: 64.3%
viability, T/C (second compound 10 µM, first compound 1 µM): 73.1%
viability, T/C (second compound 10 µM, first compound 3.16 µM): 96.1%
viability, T/C (second compound 10 µM, first compound 10 µM): 75.5%
